Data taken from patent US11369612B2, “Treatment of RSV with combination product” (Janssen Sciences Ireland Unlimited Company, priority 2017, dated 2022).

Tested on: rgRSV224
Experiment: microbe, parasite or virus in culture
Format: cell-based, RSV
Details: for normalized data (GFP response): average across 12 replicates
Experimental: To evaluate their combined antiviral effect against RSV, in vitro combination studies were performed with Compound A, i.e. 3-({5-chloro-1-[3-(methylsulfonyl)propyl]-1H-indol-2-yl}methyl)-1-(2,2,2-trifluoroethyl)-1,3-dihydro-2H-imidazo[4,5-c]pyridin-2-one, and Compound B, i.e. (1S,2S)-2-[4-[7-cyclopropyl-5-[(1R)-1-methyl-3,4-dihydro-1H-isoquinoline-2-carbonyl]pyrazolo[1,5-a]pyrimidin-2-yl]-3-fluoro-phenyl]cyclopropanecarboxylic acid. In short, 9 concentrations of Compound A were combined with 6 or 7 concentrations of Compound B. HeLa cells were infected with rgRSV224, an engineered RSV strain that encodes for eGFP (Hallak L K, Spillmann D, Collins P L, Peeples M E. Glycosaminoglycan sulfation requirements for respiratory syncytial virus infection; Journal of Virology (2000), 74(22), 10508-13), in the presence of various concentrations of compound A and compound B individually or in combination.
Compound stock solutions were 5 mM in 100% DMSO. First, the compounds were serially diluted in 3-fold dilution series in DMSO. The concentration series were diluted 100-fold in cell culture medium to achieve a combination matrix. 10 μL of these compound solutions were transferred to black 384-well clear-bottom tissue-culture treated plates. Next, 10 μL of a […] HeLa cell suspension was added to achieve 3000 cells per well. Finally, 10 μL of diluted virus stock was added to achieve an MOI of 1. The final DMSO concentration of all wells was 0.5% DMSO. Each combination of compound concentrations was tested in 4 replicates on 3 separate plates, resulting in a total of 12 replicates. The plates were incubated for 3 days at 37° C. in a humidified atmosphere at 5% CO2. The GFP signal was measured with PerkinElmer EnVision apparatus using a 405 nm filter.
The method of Harbron (Statistics in Medicine, 2010, DOI:10.1002/sim3916) was used to assess synergy. Using the Loewe definition, two compounds are characterized as being additive, synergistic or antagonistic by:
where d1 and d2 represent the doses of the two compounds that in combination produce an effect y, and Dy,1 and Dy,2 represent the doses of the two compounds that produce the same effect, y, when administered as a monotherapy. A 3PL model (3-parameter log-logistic model) was used for the monotherapy dose-response data, where the baseline response was fixed at one.
Following Harbron's approach, the following models were fitted to the data: • “Additive”: assuming no interaction between the two compounds • “Uniform”: assuming a constant interaction index τ across all dose combinations • “Linear A”: assuming the interaction index linearly depends on the log 10 dose of compound A: τ=τ1+τ2 log 10(dA) • “Separate A”: assuming the interaction index τ takes a separate value for each dose of compound A
The latter two models were also considered for compound B: • “Linear B”: assuming the interaction index linearly τ depends on the log 10 dose of compound B: τ=τ1+τ2 log 10(dB) • “Separate B”: assuming the interaction index τ takes a separate value for each dose of compound B

| Structure (SMILES) | normalized data (GFP response) (A = 0, B = 4.6) | normalized data (GFP response) (A = 0, B = 14) | normalized data (GFP response) (A = 0, B = 42) | normalized data (GFP response) (A = 0, B = 125) | normalized data (GFP response) (A = 0, B = 375) | normalized data (GFP response) (A = 0, B = 1125) | normalized data (GFP response) (A = 0.19, B = 0) | normalized data (GFP response) (A = 0.57, B = 0) | normalized data (GFP response) (A = 1.7, B = 0) | normalized data (GFP response) (A = 5.1, B = 0) | normalized data (GFP response) (A = 15, B = 0) | normalized data (GFP response) (A = 46, B = 0) | normalized data (GFP response) (A = 139, B = 0) | normalized data (GFP response) (A = 417, B = 0) | normalized data (GFP response) (A = 1250, B = 0) | EC50 (human respiratory syncytial virus, HeLa, read-out: EC50 (dose at τ EC50)) [nM] |
| --- | --- | --- | --- | --- | --- | --- | --- | --- | --- | --- | --- | --- | --- | --- | --- | --- |
| C[C@@H]1c2ccccc2CCN1C(=O)c1cc(C2CC2)n2nc(-c3ccc([C@H]4C[C@@H]4C(=O)O)cc3F)cc2n1 [Compound B, (1S,2S)-2-[4-[7-cyclopropyl-5-[(1R)-1-methyl-3,4-dihydro-1H-isoquinoline-2-carbonyl]pyrazolo[1,5-a]pyrimidin-2-yl]-3-fluoro-phenyl]cyclopropanecarboxylic acid] | 1.13 | 1.04 | 0.37 | 0.07 | 0.00 | 0.00 | – | – | – | – | – | – | – | – | – | – |
| CS(=O)(=O)CCCn1c(Cn2c(=O)n(CC(F)(F)F)c3ccncc32)cc2cc(Cl)ccc21 [Compound A, 3-({5-chloro-1-[3-(methylsulfonyl)propyl]-1H-indol-2-yl}methyl)-1-(2,2,2-trifluoroethyl)-1,3-dihydro-2H-imidazo[4,5-c]pyridin-2-one] | – | – | – | – | – | – | 1.07 | 1.05 | 0.99 | 0.74 | 0.48 | 0.29 | 0.18 | 0.08 | 0.06 | 13.1 |
